Measurements reported in patent US8927721B2, “Naphthyridine derivative” (Shionogi & Co., Ltd., priority 2010, dated 2015).

What was measured:
Recombinant human BACE1 = target: T1, Recombinant human BACE1 (Homo sapiens, UniProt P56817); assay: Assay of BACE1 inhibitory activity; type: biochemical; conditions: Recombinant human BACE1, 30° C., 3 hours, pH 5.0; read-out: IC50 (50% inhibitory concentration against the enzymatic activity)
T1 construct: purchased R&D Systems
Method: 48.5 μL of substrate peptide solution (Biotin-XSEVNLDAEFRHDSGC-Eu: X=ε-amino-n-capronic acid, Eu=Europium cryptate) was added to each well of 96-hole half-area plate (a black plate: Costar), and after addition of 0.5 μl of the compound of the present invention (N,N′-dimethylformamide solution) and 1 μl of Recombinant human BACE1(R&D Systems), the reaction mixture was incubated at 30° C. for 3 hours. The substrate peptide was synthesized by reacting Cryptate TBPCOOH mono SMP (CIS bio international) with Biotin-XSEVNLDAEFRHDSGC (Peptide Institute, Inc.). The final concentrations of the substrate peptide and Recombinant human BACE1 were adjusted to 18 nmol/L and 7.4 nmol/L, respectively, and the reaction was performed in sodium acetate buffer (50 mmol/L sodium acetate, pH 5.0, 0.008% Triton X-100). After the incubation for reaction, 50 μl of 8.0 μg/ml Streptavidin-XL665 (CIS bio international) dissolved in phosphate buffer (150 mmol/L K2HPO4—KH2PO4, pH 7.0, 0.008% Triton X-100, 0.8 mol/L KF) was added to each well and left stand at 30° C. for 1 hour. After then, fluorescence intensity was measured (excitation wavelength: 320 nm, measuring wavelength: 620 nm and 665 nm) using Wallac 1420 multilabel counter (Perkin Elmer life sciences). Enzymatic activity was determined from counting ratio of each wavelength (10,000×Count 665/Count 620) and 50% inhibitory concentration against the enzymatic activity (IC50) was calculated.

CYP3A4 = CYP3A4 (Homo sapiens, UniProt P08684); assay: CYP3A4 fluorescent MBI test; type: in vitro ADME; set-up: host or cells: Escherichia coli; conditions: pre-reaction time 0 or 30 minutes, substrate 7-BFC
Method: The CYP3A4 fluorescent MBI test is a test of investigating enhancement of CYP3A4 inhibition of the compound of the present invention by a metabolism reaction. 7-benzyloxytrifluoromethylcoumarin (7-BFC) is debenzylated by the CYP3A4 enzyme (enzyme expressed in Escherichia coli) and a metabolite, 7-hydroxytrifluoromethylcoumarin (7-HFC) which emits fluorescent light is produced. The test is performed using 7-HFC production reaction as an index.
The reaction conditions are as follows: substrate, 5.6 μmol/L 7-BFC: pre-reaction time, 0 or 30 minutes; reaction time, 15 minutes; reaction temperature, 25° C. […]
An enzyme in a K-Pi buffer (pH 7.4) and the compound of the present invention solution as a pre-reaction solution were added to a 96-well plate at the composition of the pre-reaction, a part of it was transferred to another 96-well plate so that it was 1/10 diluted by a substrate in a K-Pi buffer, NADPH as a co-factor was added to initiate a reaction as an index (without preincubation) and, after a predetermined time of a reaction, acetonitrile/0.5 mol/L Tris (trishydroxyaminomethane)=4/1 was added to stop the reaction. […] For the plate on which each index reaction had been performed, a fluorescent value of 7-HFC which is a metabolite was measured with a fluorescent plate reader. […]

[1] = tested on: Aβ production in Neuroblastoma SH-SY5Y cells (SH/APPwt); assay: Measurement of β-amyloid (Aβ) production inhibiting effect in cell; type: cell-based; conditions: Homo sapiens, 24 hours, Amyloid β1-40 HTRF, read-out: IC50 (amount needed to inhibit Aβ production by 50%)
Method: Neuroblastoma SH-SY5Y cells (SH/APPwt) with human wild-type 13-APP excessively expressed therein were prepared at 8×10^5 cells/mL, and 150 μl portions thereof were inoculated into each well of a 96-well culture plate (Falcon). The cells were cultured for 2 hours at 37° C. in a 5% gaseous carbon dioxide incubator. Then, a solution which have been preliminarily prepared by adding and suspending the compound of the present invention (DMSO (dimethyl sulfoxide) solution) so as to be 2 μl/50 μl medium was added to the cell sap. Namely, the final DMSO concentration was 1%, and the amount of the cell culture was 200 μl. After the incubation was performed for 24 hours from the addition of the test compound, 100 μl of the culture supernatant was collected from each fraction. The amount of the Aβ in each fraction was measured.
The Aβ amount was measured as follows. 10 μl of a homogeneous time resolved fluorescence (HTRF) measurement reagent (Amyloid β1-40 peptide; IBA Molecular Holding, S.A.) and 10 μl of the culture supernatant were put into a 384-well half area microplate (black microplate, Costar) and mixed with each other, and then left standing overnight at 4° C. while the light was shielded. Then, the fluorescence intensity (excitation wavelength: 337 nm, measurement wavelength: 620 nm and 665 nm) was measured with Wallac 1420 multilabel counter (Perkin Elmer life sciences). The Aβ amount was determined from the count rate at each measurement wavelength (10000×Count 665/Count 620), and the amount needed to inhibit A6 production by 50% (IC50) was calculated from at least six different dosages.

[2] = Solubility test (turbidity, JP-I, JP-II); type: physicochemical; conditions: kinetic from dmso stock, turbidity after 4 hours, 2% DMSO
Method: A 2-fold dilution series (12 points) of a 10 mM solution of a compound of the present invention in DMSO was added to a medium (JP-I, JP-II) (2%), and solubility was assessed by 3 stages (High; >40 μM, Medium; 3-40 μM, Low; <3 μM) from a turbidity after 4 hours.

T1 sequence (P56817 46-501): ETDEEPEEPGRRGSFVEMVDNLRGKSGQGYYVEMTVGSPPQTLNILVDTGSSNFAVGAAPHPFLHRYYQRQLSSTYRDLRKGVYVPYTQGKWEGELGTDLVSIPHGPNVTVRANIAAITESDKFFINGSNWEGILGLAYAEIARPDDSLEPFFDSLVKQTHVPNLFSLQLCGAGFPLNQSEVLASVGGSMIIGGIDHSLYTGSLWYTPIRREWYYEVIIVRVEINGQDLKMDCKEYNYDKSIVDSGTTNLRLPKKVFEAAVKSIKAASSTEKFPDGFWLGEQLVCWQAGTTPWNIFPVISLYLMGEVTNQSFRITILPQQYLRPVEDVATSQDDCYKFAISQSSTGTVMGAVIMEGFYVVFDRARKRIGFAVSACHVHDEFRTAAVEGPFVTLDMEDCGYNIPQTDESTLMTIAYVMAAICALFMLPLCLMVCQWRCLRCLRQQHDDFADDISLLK
Sequence of CYP3A4 (P08684 whole entry): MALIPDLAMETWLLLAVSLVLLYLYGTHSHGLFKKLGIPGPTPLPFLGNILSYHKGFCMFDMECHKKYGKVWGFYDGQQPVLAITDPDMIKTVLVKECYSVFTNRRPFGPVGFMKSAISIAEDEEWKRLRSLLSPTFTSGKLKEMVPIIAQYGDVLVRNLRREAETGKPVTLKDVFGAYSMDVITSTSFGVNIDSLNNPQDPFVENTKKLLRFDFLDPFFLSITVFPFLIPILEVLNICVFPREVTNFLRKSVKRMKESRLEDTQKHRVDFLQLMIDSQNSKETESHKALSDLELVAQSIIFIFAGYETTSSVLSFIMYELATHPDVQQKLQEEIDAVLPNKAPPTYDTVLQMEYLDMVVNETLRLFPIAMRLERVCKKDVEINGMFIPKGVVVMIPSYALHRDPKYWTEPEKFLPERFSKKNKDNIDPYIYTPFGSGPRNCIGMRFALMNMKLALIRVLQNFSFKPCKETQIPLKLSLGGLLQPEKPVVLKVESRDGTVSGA

Row | IC50 (Recombinant human BACE1) [nM] | Structure (SMILES) | further results
1 | 54 | CC1(c2cc(NC(=O)c3ccc(C#N)cn3)ccc2F)Cc2ncccc2C(N)=N1 (stereo not drawn) [Compound I-1] | CYP3A4 fluorescent MBI (difference between IC50 values without and with preincubation) (CYP3A4): (−) (when the difference is 3 μM or less, this was defined as (−))
2 | ≤ 1000 | CC1(c2cc(NC(=O)c3ccc(Cl)cn3)ccc2F)Cc2ccncc2C(N)=N1 (stereo not drawn) [Compound I-3] | 
3 | ≤ 1000 | CC1(c2cc(NC(=O)c3ccc(C#N)cn3)ccc2F)Cc2cccnc2C(N)=N1 (stereo not drawn) [Compound I-4] | 
4 | ≤ 1000 | CC1(c2cc(NC(=O)c3ccc(C#N)cn3)ccc2F)Cc2cncc(F)c2C(N)=N1 (stereo not drawn) [Compound I-6] | 
5 | ≤ 1000 | CC1(c2cc(NC(=O)c3ccc(C#N)cn3)ccc2F)Cc2ncc(F)cc2C(N)=N1 (stereo not drawn) [Compound I-7] | IC50 [1]: 2 nM
6 | ≤ 1000 | CC1(c2cc(NC(=O)c3ccc(C#N)cn3)ccc2F)Cc2ccncc2C(N)=N1 (stereo not drawn) [Compound I-8] | 
7 | ≤ 1000 | CC1(c2cc(NC(=O)c3ccc(C#N)cn3)ccc2F)Cc2c(F)cncc2C(N)=N1 (stereo not drawn) [Compound I-9] | solubility at 4 h ([2]; JP-I medium, pH 1.2, simulated gastric fluid, JP-I): > 40 µM; solubility at 4 h ([2]; JP-II medium, pH 6.8, aqueous buffer, JP-II): > 40 µM
8 | ≤ 1000 | CC1(c2cc(NC(=O)c3ccc(C#N)cn3)ccc2F)Cc2c(ccnc2F)C(N)=N1 (stereo not drawn) [Compound I-10] | 
9 | ≤ 1000 | CC1(c2cc(NC(=O)c3ccc(Cl)cn3)ccc2F)Cc2cnccc2C(N)=N1 (stereo not drawn) [Compound I-11] | 
10 | ≤ 1000 | CC1(c2cc(NC(=O)c3ncc(F)cc3F)ccc2F)Cc2cnccc2C(N)=N1 (stereo not drawn) [Compound I-12] | 
11 | ≤ 1000 | CC1(c2cc(NC(=O)c3ccc(C(F)(F)F)cn3)ccc2F)Cc2cnccc2C(N)=N1 (stereo not drawn) [Compound I-13] | 
12 | ≤ 1000 | COc1cnc(C(=O)Nc2ccc(F)c(C3(C)Cc4cnccc4C(N)=N3)c2)cn1 (stereo not drawn) [Compound I-14] | 
13 | ≤ 1000 | Cc1cnc(C(=O)Nc2ccc(F)c(C3(C)Cc4cnccc4C(N)=N3)c2)cn1 (stereo not drawn) [Compound I-15] | 
14 | ≤ 1000 | CC#CCOc1cnc(C(=O)Nc2ccc(F)c(C3(C)Cc4cnccc4C(N)=N3)c2)cn1 (stereo not drawn) [Compound I-16] | 
15 | ≤ 1000 | CC1(c2cc(NC(=O)c3ccc(Cl)cn3)ccc2F)Cc2c(F)cncc2C(N)=N1 (stereo not drawn) [Compound I-17] | 
16 | ≤ 1000 | CC1(c2cc(NC(=O)c3ncc(F)cc3F)ccc2F)Cc2c(F)cncc2C(N)=N1 (stereo not drawn) [Compound I-18] | 

Row | IC50 (Recombinant human BACE1) [nM] | Structure (SMILES) | further results
17 | ≤ 1000 | CC1(c2cc(NC(=O)c3ccc(C(F)(F)F)cn3)ccc2F)Cc2c(F)cncc2C(N)=N1 (stereo not drawn) [Compound I-19] | 
18 | ≤ 1000 | COc1cnc(C(=O)Nc2ccc(F)c(C3(C)Cc4c(F)cncc4C(N)=N3)c2)cn1 (stereo not drawn) [Compound I-20] | 
19 | ≤ 1000 | Cc1cnc(C(=O)Nc2ccc(F)c(C3(C)Cc4c(F)cncc4C(N)=N3)c2)cn1 (stereo not drawn) [Compound I-21] | 
20 | ≤ 1000 | CC#CCOc1cnc(C(=O)Nc2ccc(F)c(C3(C)Cc4c(F)cncc4C(N)=N3)c2)cn1 (stereo not drawn) [Compound I-22] | 
21 | ≤ 1000 | CC1(c2cc(NC(=O)c3ccc(C(F)(F)F)cn3)ccc2F)Cc2ccncc2C(N)=N1 (stereo not drawn) [Compound I-23] | 
22 | ≤ 1000 | COc1cnc(C(=O)Nc2ccc(F)c(C3(C)Cc4ccncc4C(N)=N3)c2)cn1 (stereo not drawn) [Compound I-24] | 
23 | ≤ 1000 | Cc1cnc(C(=O)Nc2ccc(F)c(C3(C)Cc4ccncc4C(N)=N3)c2)cn1 (stereo not drawn) [Compound I-25] | 
24 | ≤ 1000 | CC#CCOc1cnc(C(=O)Nc2ccc(F)c(C3(C)Cc4ccncc4C(N)=N3)c2)cn1 (stereo not drawn) [Compound I-26] | 
25 | 308 | CC#CC(=O)Nc1ccc(F)c(C2(C)Cc3cnccc3C(N)=N2)c1 (stereo not drawn) [Compound I-27] | 
26 | ≤ 3000 | COCC#CC(=O)Nc1ccc(F)c(C2(C)Cc3cnccc3C(N)=N2)c1 (stereo not drawn) [Compound I-28] | IC50 [1]: ≤ 3000 nM
27 | ≤ 3000 | CCCC#CC(=O)Nc1ccc(F)c(C2(C)Cc3cnccc3C(N)=N2)c1 (stereo not drawn) [Compound I-29] | 
28 | 147 | CC1(c2cc(NC(=O)C#Cc3ccccc3)ccc2F)Cc2cnccc2C(N)=N1 (stereo not drawn) [Compound I-30] | IC50 [1]: 46 nM
29 | ≤ 3000 | CC1(c2cc(NC(=O)C#CC3CC3)ccc2F)Cc2cnccc2C(N)=N1 (stereo not drawn) [Compound I-31] | 
30 | ≤ 3000 | CCCCC#CC(=O)Nc1ccc(F)c(C2(C)Cc3cnccc3C(N)=N2)c1 (stereo not drawn) [Compound I-32] | 
31 | ≤ 1000 | CCC#CC(=O)Nc1ccc(F)c(C2(C)Cc3cnccc3C(N)=N2)c1 (stereo not drawn) [Compound I-33] | 
32 | ≤ 1000 | CC#CC(=O)Nc1ccc(F)c(C2(C)Cc3c(F)cncc3C(N)=N2)c1 (stereo not drawn) [Compound I-34] | IC50 [1]: 20 nM
